{
  "source": "patent US20060177430A1",
  "about": "“Treatment of ocular disorders with ophthalmic formulations containing methylsulfonylmethane as a transport enhancer” (Chakshu Research Inc, priority 2002, published 2006)",
  "key": {"[1]": {"settings": "not told", "from_the_text": "(§1) The same study design and experimental setup was used as described in the above experiments."}, "[2]": {"settings": "@ 79° F.; cited from earlier work"}, "[3]": {"system": "Human lens epithelial cells (HLEC)", "assay": "Cell viability following oxidation-induced toxicity in human lens epithelial cells (Example 27)", "type": "cell-based", "settings": "oxidants, 16 hrs; 4 mM MSM, 0.5 mM EDTA", "experimental": "Materials. […] All cell culture medium components were from Invitrogen. Cell Culture and Treatment. […] Cell Viability. Cell survival was determined by Trypan Blue staining and counting with a hemocytometer. Dead cells stain blue, while live cells exclude Trypan Blue. Cell viability is represented as the number of live cells divided by the total number of cells, expressed as a percentage. [[[…]]] Experimental Procedure. 1. Seeded 0.5×10^5/ml of HLEC (Passage 5) into three 12-well plates, incubated at 37° C. for overnight. 2. […] Added the oxidation reagents and MSM and/or EDTA to the proper wells. […] Ferrous ammonium sulfate (FAS) 10 μM, ADP 100 μM, H2O2 100 μM • Fenton': FAS 10 μM, ADP 100 μM, H2O2 100 μM • Ferric Chloride: […]"}, "[4]": {"system": "rat lens organ culture", "assay": "Oxidation-induced toxicity in rat lens organ culture (Example 26)", "type": "cell-based", "settings": "7 days", "source_text": "Materials. […] All cell culture medium components were from Invitrogen. Animals. […] Lens Culture. The rat lenses were dissected and washed with 1% penicillin/streptomycin in sterile PBS. […] The lenses were visualized under a Nikon Eclipse 200 and photographs were taken using a Multidimensional Imaging System. [table] Experimental Procedure. 1. Sacrificed seven rats, removed the eyeballs as soon as possible, and put them into a tube containing PBS with 0.1% gentamicin. 2. Dissected the lenses immediately and washed with PBS. 3. […] Each treatment was performed in 2 wells. Final concentrations for the six treatments were as follows: […] After 7 days of lens culture, took photographs and determined level of light transparency through the lenses."}, "[5]": {"settings": "in the absence of MSM"}, "[6]": {"assay": "EDTA pharmacokinetic study: 14C-EDTA in structures of the rat eye (Example 25)", "method": "Objectives. Determine the amount of C-14 labeled EDTA that penetrates into the various structures of the rat eye (cornea, aqueous humor, lens, vitreous, and retina), using eye drops that contain MSM. Carry out a comparison of two different eye drop formulations that differed in their EDTA concentration.\n8 μl of Eye Drop 1 was applied to the rats' eyes. […] The eyeballs were quickly washed 6 times in 5 ml of saline each time. Aqueous humor was aspirated from both eyes and dispensed in 50 μl of PBS. Cornea, lens, vitreous and retina from each eye were separated and placed in Eppendorf tubes containing H2O and 10N NaOH in the following ratio:\n8 μl of Eye Drop 2 was applied to the rat eye. After 0.5, 2 and 4 hours, the rats were sacrificed and the experiment conducted in the same way as for Eye Drop 1."}, "[7]": {"assay": "in vivo", "experimental": "The ocular pharmacokinetic behavior of EDTA, when administered as a component of Formulation 1, was evaluated in rabbits over a period of five days. Two healthy male rabbits, each approximately 2.5 to 3 kg in body weight, were used for the study.\nOn day 1 of the study, one drop of Formulation 1 was topically instilled in each eye of both rabbits (four eyes total). No additional eye drops were administered during the course of the study. Samples of aqueous humor were extracted at 15 min, 30 min, 1 hr, 4 hrs, 3 days, and 5 days following administration (as indicated in the following table). Vitreous humor was extracted at 5 days following administration from all four eyes. The concentration of EDTA was measured in all the samples of aqueous humor and vitreous humor by HPLC analysis.\nIn the following in vivo experiment, the ocular pharmacokinetic behavior of EDTA, when administered with MSM as permeation enhancing penetrating agent, was evaluated in rabbits over a period of five days. Two healthy male rabbits, each approximately 2.5 to 3 Kg in body weight, were used for the study.\nAn eye drop formulation of the invention, was prepared as follows: High purity de-ionized (DI) water (500 ml) was filtered via a 0.2 micron filter. MSM (27 g), EDTA (13 g), and L-carnosine (5 g) were added to the filtered DI water, and mixed until visual transparency was achieved, indicating dissolution. The mixture was poured into 10 ml bottles each having a dropper cap. On a weight percent basis, the eye drops had the following composition: […]"}, "[8]": {"settings": "54 mg MSM/ml", "from_the_text": "as §1"}, "[9]": {"settings": "5 days after one drop of Formulation 1, per rabbit eye"}},
  "note": "Values joined by “and” are separate entries in the source; they are usually repeats but may differ in a detail not shown here. Identical values can stand only once.",
  "data": [
    {"smiles": "NCCC(=O)N[C@@H](Cc1cnc[nH]1)C(=O)O", "note": "[L-carnosine]", "values": [
      {"measurement": "increase of permeation over control", "setting": "[1]", "result": "about 2.5%"}
    ]},
    {"smiles": "CS(C)(=O)=O", "note": "[MSM, methylsulfonylmethane]", "values": [
      {"measurement": "water solubility", "setting": "[2]", "result": 34, "unit": "% w/v"},
      {"measurement": "percent cell viability (Trypan Blue)", "setting": "[3]", "result": "increased the percent cell viability for all oxidants"},
      {"measurement": "Light transmission through the lens, of control", "setting": "[4]; 1 mM ascorbate + 100 μM hydrogen peroxide, oxidant alone 32%, 4 mM MSM, 0.5 mM EDTA", "result": 57, "unit": "%"},
      {"measurement": "Light transmission through the lens, of untreated control", "setting": "[4]; 50 mM glucose, glucose alone 45%, 4 mM MSM, 0.5 mM EDTA", "result": 68, "unit": "%"},
      {"measurement": "lens opacification in photographs of the lens culture", "setting": "[4]; glucose or ascorbate plus hydrogen peroxide", "result": "mitigated lens opacification by both oxidants"}
    ]},
    {"smiles": "O=C(O)CN(CCN(CC(=O)O)CC(=O)O)CC(=O)O", "note": "[EDTA, ethylenediamine tetraacetic acid]", "values": [
      {"measurement": "amount present in the aqueous humor", "setting": "[5]", "result": "very little"},
      {"measurement": "dose dependency of nanograms of EDTA in eye structures", "setting": "[6]; Eye Drop 1 (60.5 mM EDTA) versus Eye Drop 2 (12.5 mM EDTA)", "result": "Dose dependency was observed, particularly in the aqueous humor, the cornea, and the lens"},
      {"measurement": "distribution among eye structures", "setting": "[6]; Eye Drop 1, two-hour time point", "result": "The majority of the EDTA was found in the aqueous humor"},
      {"measurement": "Concentration of EDTA, aqueous humor", "setting": "[7]; 3 days after one drop of Formulation 1, per rabbit eye", "result": "0.4 micrograms per milliliter and 0.7 micrograms per milliliter"},
      {"measurement": "Concentration of EDTA, aqueous humor", "setting": "[7]; [9]", "result": "0.5 micrograms per milliliter and 0.4 micrograms per milliliter"},
      {"measurement": "Concentration of EDTA, vitreous humor", "setting": "[7]; [9]", "result": "0.5 micrograms per milliliter and 0.7 micrograms per milliliter"},
      {"measurement": "concentration at 15 min", "setting": "[7]; male, rabbit, aqueous humor, topical, 1 drop of Formulation 1 per eye, Concentration of EDTA, aqueous humor, 15 min after one drop of Formulation 1, per rabbit eye, HPLC", "result": 1300, "unit": "ng/mL"},
      {"measurement": "concentration at 30 min", "setting": "[7]; male, rabbit, aqueous humor, topical, 1 drop of Formulation 1 per eye, Concentration of EDTA, aqueous humor, 30 min after one drop of Formulation 1, per rabbit eye", "result": 10700, "unit": "ng/mL"},
      {"measurement": "concentration at 1 hr", "setting": "[7]; male, rabbit, aqueous humor, topical, 1 drop of Formulation 1 per eye, Concentration of EDTA, aqueous humor, 1 hr after one drop of Formulation 1, per rabbit eye", "result": 5300, "unit": "ng/mL"},
      {"measurement": "concentration at 4 hrs", "setting": "[7]; male, rabbit, aqueous humor, topical, 1 drop of Formulation 1 per eye, Concentration of EDTA, aqueous humor, 4 hrs after one drop of Formulation 1, per rabbit eye", "result": 900, "unit": "ng/mL"},
      {"measurement": "concentration at 3 days", "setting": "[7]; male, rabbit, aqueous humor, topical, 1 drop of Formulation 1 per eye, Concentration of EDTA, aqueous humor, 3 days after one drop of Formulation 1, per rabbit eye", "result": 500, "unit": "ng/mL"},
      {"measurement": "concentration at 5 days", "setting": "[7]; male, rabbit, aqueous humor, topical, 1 drop of Formulation 1 per eye, Concentration of EDTA, aqueous humor, 5 days after one drop of Formulation 1, per rabbit eye", "result": 600, "unit": "ng/mL"},
      {"measurement": "concentration at 30 min", "setting": "[7]; male, rabbit, aqueous humor, topical, 1 drop of Formulation 1 per eye, concentration of EDTA in aqueous humor, 30 minutes following administration of Formulation 1", "result": 10700, "unit": "ng/mL"},
      {"measurement": "concentration at 5 days", "setting": "[7]; male, rabbit, vitreous humor, topical, 1 drop of Formulation 1 per eye, Concentration of EDTA, vitreous humor, 5 days after one drop of Formulation 1, per rabbit eye", "result": 600, "unit": "ng/mL"}
    ]},
    {"smiles": "N[C@@H](CCC(=O)N[C@@H](CS)C(=O)NCC(=O)O)C(=O)O", "note": "[glutathione]", "values": [
      {"measurement": "effect of MSM on the diffusion rate", "setting": "[8]", "result": "no effect"}
    ]}
  ]
}
